Measured values published in patent publication US12391737B2, “Soluble NPY2 receptor agonists” (Boehringer Ingelheim International GmbH, priority 2020, dated 2025).

Experiments:
[1] = molecular target: T1, Human Neuropeptide Y2 Receptor (Homo sapiens, UniProt P49146); test: Radioligand binding competition assay (RLB); conditions: Table 3, 125I-PYY(1-36) competition; read-out: Ki
T1 construct: purchased CHEMICON HTS066M
T1 sequence (P49146 1-381): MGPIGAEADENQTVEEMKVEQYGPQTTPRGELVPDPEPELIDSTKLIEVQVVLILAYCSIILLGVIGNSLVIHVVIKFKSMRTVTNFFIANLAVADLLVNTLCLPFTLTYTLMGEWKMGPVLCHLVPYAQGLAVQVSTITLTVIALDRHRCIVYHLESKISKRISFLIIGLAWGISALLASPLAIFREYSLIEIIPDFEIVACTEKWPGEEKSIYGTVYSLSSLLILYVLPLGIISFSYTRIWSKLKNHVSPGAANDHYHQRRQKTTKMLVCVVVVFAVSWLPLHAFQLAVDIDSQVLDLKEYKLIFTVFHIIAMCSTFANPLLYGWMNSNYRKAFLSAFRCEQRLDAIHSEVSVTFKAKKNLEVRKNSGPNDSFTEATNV
Outline: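 Displacement of radioligand is measured after 2 h at room temperature with receptor membranes in Mg2+/Ca2+ HEPES buffer, pH 7.4. Filter-bound radioactivity is counted and IC50 obtained from curve fitting.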

Solubility determination = test: Solubility determination
Outline: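 Sample: TFA-salt peptide at 10 mg/ml target in 0.1 M Na diphosphate, pH 6.4 or 7.0, shaken 2 h RT, filtered, diluted to 1 mg/ml.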

Row | SMILES | Ki [1] [nM] | Sol6 (Solubility determination; solubility in the pH 6 condition, measured pH printed in the next column (6.0-6.3)) [mg/mL] | Sol7 (Solubility determination; solubility in the pH 7 condition, measured pH printed in the next column (6.6-6.9)) [mg/mL] | Sol6 (Solubility determination; pH 6) [mg/mL] | Sol7 (Solubility determination; pH 7) [mg/mL]
1 | CC(C)CC(=O)N[C@@H](C)C(=O)N1CCC[C@H]1C(=O)N[C@@H](CCC(=O)O)C(=O)N[C@@H](CCCCNC(=O)CCCCCNC(=O)CC[C@H](NC(=O)CCCCCCCCCCCCCCCCC(=O)O)C(=O)O)C(=O)N1CCC[C@H]1C(=O)N[C@@H](CCC(=O)O)C(=O)N[C@@H](CCC(=O)O)C(=O)N[C@@H](CC(=O)O)C(=O)N[C@@H](C)C(=O)N[C@H](C(=O)N1CCC[C@H]1C(=O)N[C@@H](CCC(=O)O)C(=O)N[C@@H](CCC(=O)O)C(=O)N[C@@H](CC(C)C)C(=O)N[C@@H](CCC(N)=O)C(=O)N[C@@H](CCCNC(=N)N)C(=O)N[C@@H](Cc1ccc(O)cc1)C(=O)N[C@@H](Cc1ccc(O)cc1)C(=O)N[C@H](C(=O)N[C@@H](CO)C(=O)N[C@@H](CC(C)C)C(=O)N[C@@H](CCCNC(=N)N)C(=O)N[C@@H](Cc1c[nH]cn1)C(=O)N[C@@H](Cc1ccc(O)cc1)C(=O)N[C@@H](Cc1ccc(O)cc1)C(=O)N[C@@H](CC(N)=O)C(=O)N[C@@H](Cc1c[nH]c2ccccc12)C(=O)N[C@@H](CC(C)C)C(=O)N[C@H](C(=O)N[C@@H](CCCCN)C(=O)N[C@@H](CCC(N)=O)C(=O)N[C@@H](CCCNC(=N)N)C(=O)N[C@@H](Cc1ccc(O)cc1)C(N)=O)[C@@H](C)O)C(C)C)[C@@H](C)O [Compound 180, N{alpha-4}-(3-methylbutanoyl)-N{epsilon-7}-(6-[(4S)-4-carboxy-4-(17-carboxyheptadecanamido)butanamido]hexanoyl)-[4A,7K,9E,13T,18Q,22V,28Y,30W,31L,33K]-hPYY(4-36)] | 15.1 | 9.9 | 10.0 | – | –
2 | CC(C)CC(=O)N[C@@H](C)C(=O)N1CCC[C@H]1C(=O)N[C@@H](CCC(=O)O)C(=O)N[C@@H](CCCCNC(=O)CCCCCNC(=O)CC[C@H](NC(=O)CCCCCCCCCCCCCCCCC(=O)O)C(=O)O)C(=O)N1CCC[C@H]1C(=O)N[C@@H](CCC(=O)O)C(=O)N[C@@H](CCC(=O)O)C(=O)N[C@@H](CC(=O)O)C(=O)N[C@@H](C)C(=O)N[C@H](C(=O)N1CCC[C@H]1C(=O)N[C@@H](CCC(=O)O)C(=O)N[C@@H](CCC(=O)O)C(=O)N[C@@H](CC(C)C)C(=O)N[C@@H](CCC(N)=O)C(=O)N[C@@H](CCC(N)=O)C(=O)N[C@@H](Cc1ccc(O)cc1)C(=O)N[C@@H](Cc1ccc(O)cc1)C(=O)N[C@H](C(=O)N[C@@H](CO)C(=O)N[C@@H](CC(C)C)C(=O)N[C@@H](CCCNC(=N)N)C(=O)N[C@@H](Cc1c[nH]cn1)C(=O)N[C@@H](Cc1ccc(O)cc1)C(=O)N[C@@H](Cc1ccc(O)cc1)C(=O)N[C@@H](CC(N)=O)C(=O)N[C@@H](Cc1c[nH]c2ccccc12)C(=O)N[C@@H](CC(C)C)C(=O)N[C@H](C(=O)N[C@@H](CCCNC(=N)N)C(=O)N[C@@H](CCC(N)=O)C(=O)N[C@@H](CCCNC(=N)N)C(=O)N[C@@H](Cc1ccc(O)cc1)C(N)=O)[C@@H](C)O)C(C)C)[C@@H](C)O [Compound 177, N{alpha-4}-(3-methylbutanoyl)-N{epsilon-7}-(6-[(4S)-4-carboxy-4-(17-carboxyheptadecanamido)butanamido]hexanoyl)-[4A,7K,9E,13T,18Q,19Q,22V,28Y,30W,31L]-hPYY(4-36)] | 8.65 | – | – | >10.0 | 10.0
3 | CC(C)CC(=O)N[C@@H](C)C(=O)N1CCC[C@H]1C(=O)N[C@@H](C)C(=O)N[C@@H](CCCCNC(=O)CCCCCNC(=O)CC[C@H](NC(=O)CCCCCCCCCCCCCCCCC(=O)O)C(=O)O)C(=O)N1CCC[C@H]1C(=O)N[C@@H](CCC(=O)O)C(=O)N[C@@H](CCC(=O)O)C(=O)N[C@@H](CC(=O)O)C(=O)N[C@@H](C)C(=O)N[C@@H](CO)C(=O)N1CCC[C@H]1C(=O)N[C@@H](CCC(=O)O)C(=O)N[C@@H](CCC(=O)O)C(=O)N[C@@H](CC(C)C)C(=O)N[C@@H](CCC(N)=O)C(=O)N[C@@H](CCCNC(=N)N)C(=O)N[C@@H](Cc1ccc(O)cc1)C(=O)N[C@@H](Cc1ccc(O)cc1)C(=O)N[C@H](C(=O)N[C@@H](CO)C(=O)N[C@@H](CC(C)C)C(=O)N[C@@H](CCCNC(=N)N)C(=O)N[C@@H](Cc1c[nH]cn1)C(=O)N[C@@H](CCC(N)=O)C(=O)N[C@@H](Cc1ccc(O)cc1)C(=O)N[C@@H](CC(N)=O)C(=O)N[C@@H](Cc1c[nH]c2ccccc12)C(=O)N[C@@H](CC(C)C)C(=O)N[C@H](C(=O)N[C@@H](CCCNC(=N)N)C(=O)N[C@@H](CCC(N)=O)C(=O)N[C@@H](CCCNC(=N)N)C(=O)N[C@@H](Cc1ccc(O)cc1)C(N)=O)[C@@H](C)O)C(C)C [Compound 32, N{alpha-4}-(3-methylbutanoyl)-N{epsilon-7}-(6-[(4S)-4-carboxy-4-(17-carboxyheptadecanamido)butanamido]hexanoyl)[4A,6A,7K,9E,18Q,22V,27Q,28Y,30W,31L]-hPYY(4-36)] | 13.6 | – | – | 8.2 | 9.3
4 | CC(C)CC(=O)N[C@@H](C)C(=O)N1CCC[C@H]1C(=O)N[C@@H](CCC(=O)O)C(=O)N[C@@H](CCCCNC(=O)CCCCCNC(=O)CC[C@H](NC(=O)CCCCCCCCCCCCCCCCC(=O)O)C(=O)O)C(=O)N1CCC[C@H]1C(=O)N[C@@H](CCC(=O)O)C(=O)N[C@@H](CCC(=O)O)C(=O)N[C@@H](CC(=O)O)C(=O)N[C@@H](C)C(=O)N[C@@H](CCC(=O)O)C(=O)N1CCC[C@H]1C(=O)N[C@@H](CCC(=O)O)C(=O)N[C@@H](CCC(=O)O)C(=O)N[C@@H](CC(C)C)C(=O)N[C@@H](CCC(N)=O)C(=O)N[C@@H](CCC(=O)O)C(=O)N[C@@H](Cc1ccc(O)cc1)C(=O)N[C@@H](Cc1ccc(O)cc1)C(=O)N[C@H](C(=O)N[C@@H](CO)C(=O)N[C@@H](CC(C)C)C(=O)N[C@@H](CCCNC(=N)N)C(=O)N[C@@H](Cc1c[nH]cn1)C(=O)N[C@@H](Cc1ccc(O)cc1)C(=O)N[C@@H](Cc1ccc(O)cc1)C(=O)N[C@@H](CC(N)=O)C(=O)N[C@@H](Cc1c[nH]c2ccccc12)C(=O)N[C@@H](CC(C)C)C(=O)N[C@H](C(=O)N[C@@H](CCCNC(=N)N)C(=O)N[C@@H](CCC(N)=O)C(=O)N[C@@H](CCCNC(=N)N)C(=O)N[C@@H](Cc1ccc(O)cc1)C(N)=O)[C@@H](C)O)C(C)C [Compound 138, N{alpha-4}-(3-methylbutanoyl)-N{epsilon-7}-(6-[(4S)-4-carboxy-4-(17-carboxyheptadecanamido)butanamido]hexanoyl)-[4A,7K,9E,13E,18Q,19E,22V,28Y,30W,31L]-hPYY(4-36)] | 12.5 | – | – | 9.9 | 9.5
5 | CC[C@H](C)[C@H](NC(=O)[C@H](CCC(=O)O)NC(=O)[C@H](CCC(=O)O)NC(=O)[C@@H]1CCCN1C(=O)[C@H](CCC(=O)O)NC(=O)[C@H](C)NC(=O)[C@H](CC(=O)O)NC(=O)[C@H](C)NC(=O)[C@H](CCC(=O)O)NC(=O)[C@@H]1CCCN1C(=O)[C@H](CCCCNC(=O)CCCCCNC(=O)CC[C@H](NC(=O)CCCCCCCCCCCCCCCCC(=O)O)C(=O)O)NC(=O)[C@H](C)NC(=O)[C@@H]1CCCN1C(=O)[C@H](C)NC(=O)CC(C)C)C(=O)N[C@@H](CCC(N)=O)C(=O)N[C@@H](CCCNC(=N)N)C(=O)N[C@@H](Cc1ccc(O)cc1)C(=O)N[C@@H](Cc1ccc(O)cc1)C(=O)N[C@H](C(=O)N[C@@H](C)C(=O)N[C@@H](CC(C)C)C(=O)N[C@@H](CCCNC(=N)N)C(=O)N[C@@H](Cc1c[nH]cn1)C(=O)N[C@@H](Cc1ccc(O)cc1)C(=O)N[C@@H](Cc1ccc(O)cc1)C(=O)N[C@@H](CC(N)=O)C(=O)N[C@@H](Cc1c[nH]c2ccccc12)C(=O)N[C@@H](CC(C)C)C(=O)N[C@H](C(=O)N[C@@H](CCCNC(=N)N)C(=O)N[C@@H](CCC(N)=O)C(=O)N[C@@H](CCCNC(=N)N)C(=O)N[C@@H](Cc1ccc(O)cc1)C(N)=O)[C@@H](C)O)C(C)C [Compound 181, N{alpha-4}-(3-methylbutanoyl)-N{epsilon-7}-(6-[(4S)-4-carboxy-4-(17-carboxyheptadecanamido)butanamido]hexanoyl)-[4A,6A,7K,9E,10A,13E,17I,18Q,22V,23A,28Y,30W,31L]-hPYY(4-36)] | 1.33 | – | – | 9.5 | 9.3
